# Assay results taken from PubChem BioAssay AID2060889 (Molecular Pharmacology Branch, DTP, NCI, 2025).
# System: LG0567-F671-PDC complex spheroids viability
# Assay: Anticancer human tumor LG0567-F671-PDC patient-derived lung adenocarcinoma cell line growth inhibition [RAS]
# Settings: for IC50: curve of first compound; for viability, T/C: stronger effect = lower value
# Outline: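 Multi-cell-type spheroids: tumor cells plus HUVEC endothelial cells and mesenchymal stem cells. RAS-pathway inhibitors were combined with targeted agents, each dosed in half-log steps down from clinical Cmax, or from 10 microM when Cmax was unknown.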
# [1] = second compound 0.000949 µM, first compound 0.0316 µM
# [2] = second compound 0.000949 µM, first compound 0.1 µM
# [3] = second compound 0.003 µM, first compound 0.0316 µM
# [4] = second compound 0.003 µM, first compound 0.1 µM
# [5] = second compound 0.00949 µM, first compound 0.0316 µM
# [6] = second compound 0.00949 µM, first compound 0.1 µM
# [7] = second compound 0.03 µM, first compound 0.0316 µM
# [8] = second compound 0.03 µM, first compound 0.1 µM
# [9] = second compound 0.0949 µM, first compound 0.0316 µM
# [10] = second compound 0.0949 µM, first compound 0.1 µM
# [11] = second compound 0.3 µM, first compound 0.0316 µM
# [12] = second compound 0.3 µM, first compound 0.1 µM
# 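Note: spheroids exposed to compound for seven days before readout.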
# 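Throughout, for IC50: luminescence signal used as a proxy for viable cells.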
smiles,measurement,setting,value
CC(=O)OC12COC1CC(O)C1(C)C(=O)C(O)C3=C(C)C(OC(=O)C(O)C(NC(=O)OC(C)(C)C)c4ccccc4)CC(O)(C(OC(=O)c4ccccc4)C21)C3(C)C (stereo unspecified) + C#Cc1c(F)ccc2cc(O)cc(-c3ncc4c(N5CC6CCC(C5)N6)nc(OCC56CCCN5CC(F)C6)nc4c3F)c12,IC50,second compound 0.0316 µM,< 31.6 nM
same,IC50,second compound 0.1 µM,< 31.6 nM
same,IC50,second compound 0.316 µM,< 31.6 nM
same,IC50,second compound 1 µM,< 31.6 nM
same,IC50,second compound 3.16 µM,< 31.6 nM
same,IC50,second compound 10 µM,< 31.6 nM
same,"viability, T/C","second compound 0.0316 µM, first compound 0.0316 µM",44.2%
same,"viability, T/C","second compound 0.0316 µM, first compound 0.1 µM",43%
same,"viability, T/C","second compound 0.0316 µM, first compound 0.316 µM",53.7%
same,"viability, T/C","second compound 0.0316 µM, first compound 1 µM",60%
same,"viability, T/C","second compound 0.0316 µM, first compound 3.16 µM",66.5%
same,"viability, T/C","second compound 0.0316 µM, first compound 10 µM",65.3%
same,"viability, T/C","second compound 0.1 µM, first compound 0.0316 µM",45.7%
same,"viability, T/C","second compound 0.1 µM, first compound 0.1 µM",40.1%
same,"viability, T/C","second compound 0.1 µM, first compound 0.316 µM",53.2%
same,"viability, T/C","second compound 0.1 µM, first compound 1 µM",56.7%
same,"viability, T/C","second compound 0.1 µM, first compound 3.16 µM",64.5%
same,"viability, T/C","second compound 0.1 µM, first compound 10 µM",59.4%
same,"viability, T/C","second compound 0.316 µM, first compound 0.0316 µM",34.9%
same,"viability, T/C","second compound 0.316 µM, first compound 0.1 µM",37.8%
same,"viability, T/C","second compound 0.316 µM, first compound 0.316 µM",45.4%
same,"viability, T/C","second compound 0.316 µM, first compound 1 µM",49.1%
same,"viability, T/C","second compound 0.316 µM, first compound 3.16 µM",60%
same,"viability, T/C","second compound 0.316 µM, first compound 10 µM",43.8%
same,"viability, T/C","second compound 1 µM, first compound 0.0316 µM",26.7%
same,"viability, T/C","second compound 1 µM, first compound 0.1 µM",24.8%
same,"viability, T/C","second compound 1 µM, first compound 0.316 µM",31.1%
same,"viability, T/C","second compound 1 µM, first compound 1 µM",37%
same,"viability, T/C","second compound 1 µM, first compound 3.16 µM",43.8%
same,"viability, T/C","second compound 1 µM, first compound 10 µM",30.8%
same,"viability, T/C","second compound 3.16 µM, first compound 0.0316 µM",16.1%
same,"viability, T/C","second compound 3.16 µM, first compound 0.1 µM",16.4%
same,"viability, T/C","second compound 3.16 µM, first compound 0.316 µM",19.9%
same,"viability, T/C","second compound 3.16 µM, first compound 1 µM",20.5%
same,"viability, T/C","second compound 3.16 µM, first compound 3.16 µM",23.9%
same,"viability, T/C","second compound 3.16 µM, first compound 10 µM",15.2%
same,"viability, T/C","second compound 10 µM, first compound 0.0316 µM",9.08%
same,"viability, T/C","second compound 10 µM, first compound 0.1 µM",7.93%
same,"viability, T/C","second compound 10 µM, first compound 0.316 µM",9.23%
same,"viability, T/C","second compound 10 µM, first compound 1 µM",8.41%
same,"viability, T/C","second compound 10 µM, first compound 3.16 µM",9.25%
same,"viability, T/C","second compound 10 µM, first compound 10 µM",5.64%
C[C@@H](NC(=O)c1ncnc(N)c1Cl)c1ncc(C(=O)Nc2cc(C(F)(F)F)c(Cl)cn2)s1 + CCn1c(-c2cccnc2C(C)OC)c2c3cc(ccc31)N1CCOC(CC(NC(=O)C(C(C)C)N(C)C(=O)C3(F)CCN(C(=O)C#CC(C)(C)N(C)C)CC3)C(=O)N3CCCC(N3)C(=O)OCC(C)(C)C2)C1,IC50,second compound 0.000949 µM,< 31.6 nM
same,IC50,second compound 0.003 µM,< 31.6 nM
same,IC50,second compound 0.00949 µM,< 31.6 nM
same,IC50,second compound 0.03 µM,< 31.6 nM
same,IC50,second compound 0.0949 µM,< 31.6 nM
same,IC50,second compound 0.3 µM,< 31.6 nM
same,"viability, T/C",[1],17.3%
same,"viability, T/C",[2],19.9%
same,"viability, T/C","second compound 0.000949 µM, first compound 0.316 µM",20.6%
same,"viability, T/C","second compound 0.000949 µM, first compound 1 µM",24.5%
same,"viability, T/C","second compound 0.000949 µM, first compound 3.16 µM",23.5%
same,"viability, T/C","second compound 0.000949 µM, first compound 10 µM",23.9%
same,"viability, T/C",[3],17.1%
same,"viability, T/C",[4],17.9%
same,"viability, T/C","second compound 0.003 µM, first compound 0.316 µM",21.1%
same,"viability, T/C","second compound 0.003 µM, first compound 1 µM",21%
same,"viability, T/C","second compound 0.003 µM, first compound 3.16 µM",25.6%
same,"viability, T/C","second compound 0.003 µM, first compound 10 µM",23.6%
same,"viability, T/C",[5],20.9%
same,"viability, T/C",[6],18.6%
same,"viability, T/C","second compound 0.00949 µM, first compound 0.316 µM",19.2%
same,"viability, T/C","second compound 0.00949 µM, first compound 1 µM",22.4%
same,"viability, T/C","second compound 0.00949 µM, first compound 3.16 µM",22.4%
same,"viability, T/C","second compound 0.00949 µM, first compound 10 µM",24%
same,"viability, T/C",[7],16.7%
same,"viability, T/C",[8],17.1%
same,"viability, T/C","second compound 0.03 µM, first compound 0.316 µM",22.9%
same,"viability, T/C","second compound 0.03 µM, first compound 1 µM",20.3%
same,"viability, T/C","second compound 0.03 µM, first compound 3.16 µM",21.6%
same,"viability, T/C","second compound 0.03 µM, first compound 10 µM",22.2%
same,"viability, T/C",[9],14.4%
same,"viability, T/C",[10],15.5%
same,"viability, T/C","second compound 0.0949 µM, first compound 0.316 µM",17.5%
same,"viability, T/C","second compound 0.0949 µM, first compound 1 µM",19.6%
same,"viability, T/C","second compound 0.0949 µM, first compound 3.16 µM",19.8%
same,"viability, T/C","second compound 0.0949 µM, first compound 10 µM",21.8%
same,"viability, T/C",[11],13%
same,"viability, T/C",[12],14.8%
same,"viability, T/C","second compound 0.3 µM, first compound 0.316 µM",14.2%
same,"viability, T/C","second compound 0.3 µM, first compound 1 µM",17.2%
same,"viability, T/C","second compound 0.3 µM, first compound 3.16 µM",19.5%
same,"viability, T/C","second compound 0.3 µM, first compound 10 µM",19.1%
CC(C)n1nc(-c2ccc3oc(N)nc3c2)c2c(N)ncnc21 + CCn1c(-c2cccnc2C(C)OC)c2c3cc(ccc31)N1CCOC(CC(NC(=O)C(C(C)C)N(C)C(=O)C3(F)CCN(C(=O)C#CC(C)(C)N(C)C)CC3)C(=O)N3CCCC(N3)C(=O)OCC(C)(C)C2)C1,IC50,second compound 0.000949 µM,< 0.316 nM
same,IC50,second compound 0.003 µM,< 0.316 nM
same,IC50,second compound 0.00949 µM,< 0.316 nM
same,IC50,second compound 0.03 µM,< 0.316 nM
same,IC50,second compound 0.0949 µM,< 0.316 nM
same,IC50,second compound 0.3 µM,< 0.316 nM
same,"viability, T/C","second compound 0.000949 µM, first compound 0.000316 µM",14.9%
same,"viability, T/C","second compound 0.000949 µM, first compound 0.001 µM",14.4%
same,"viability, T/C","second compound 0.000949 µM, first compound 0.00316 µM",12.2%
same,"viability, T/C","second compound 0.000949 µM, first compound 0.01 µM",9.49%
same,"viability, T/C",[1],8.53%
same,"viability, T/C",[2],14.7%
same,"viability, T/C","second compound 0.003 µM, first compound 0.000316 µM",15.6%
same,"viability, T/C","second compound 0.003 µM, first compound 0.001 µM",12.4%
same,"viability, T/C","second compound 0.003 µM, first compound 0.00316 µM",12.5%
same,"viability, T/C","second compound 0.003 µM, first compound 0.01 µM",10.2%
same,"viability, T/C",[3],8.31%
same,"viability, T/C",[4],13.6%
same,"viability, T/C","second compound 0.00949 µM, first compound 0.000316 µM",13.3%
same,"viability, T/C","second compound 0.00949 µM, first compound 0.001 µM",13.2%
same,"viability, T/C","second compound 0.00949 µM, first compound 0.00316 µM",13.3%
same,"viability, T/C","second compound 0.00949 µM, first compound 0.01 µM",10.2%
same,"viability, T/C",[5],7.68%
same,"viability, T/C",[6],12.6%
same,"viability, T/C","second compound 0.03 µM, first compound 0.000316 µM",12%
same,"viability, T/C","second compound 0.03 µM, first compound 0.001 µM",14%
same,"viability, T/C","second compound 0.03 µM, first compound 0.00316 µM",11%
same,"viability, T/C","second compound 0.03 µM, first compound 0.01 µM",9.46%
same,"viability, T/C",[7],7.2%
same,"viability, T/C",[8],11.5%
same,"viability, T/C","second compound 0.0949 µM, first compound 0.000316 µM",11.1%
same,"viability, T/C","second compound 0.0949 µM, first compound 0.001 µM",10.9%
same,"viability, T/C","second compound 0.0949 µM, first compound 0.00316 µM",9.2%
same,"viability, T/C","second compound 0.0949 µM, first compound 0.01 µM",7.52%
same,"viability, T/C",[9],5.8%
same,"viability, T/C",[10],10.4%
same,"viability, T/C","second compound 0.3 µM, first compound 0.000316 µM",9.46%
same,"viability, T/C","second compound 0.3 µM, first compound 0.001 µM",8.59%
same,"viability, T/C","second compound 0.3 µM, first compound 0.00316 µM",8.57%
same,"viability, T/C","second compound 0.3 µM, first compound 0.01 µM",7.61%
same,"viability, T/C",[11],4.68%
same,"viability, T/C",[12],8.47%
